According to ChEMBL document CHEMBL5576107, “Wajeepeptin, a Cytotoxic and Antitrypanosomal Cyclic Depsipeptide from a Marine Moorena sp. Cyanobacterium” (J Nat Prod, 2024):
Activity calls are given as the source filed them. The calls are words filed in the database; no cut-off is given here. Starred links: 1 amine or outer side, 2 acyl side, 3 side chain; linkers in the order of their positions; H or OH if unused. Non-standard residues stand in square brackets, D forms with d. Residues, ends and D or L forms follow the SMILES beside them. X1 = CC[C@@H](N[*:1])[C@H](C)C(=O)[*:2]; NMeI = CC[C@H](C)[C@H](NC)C(=O)O; NMeV = CN[C@H](C(=O)O)C(C)C; Hiv = CC(C)[C@H](O)C(=O)O; NMeA = CN[C@@H](C)C(=O)O; Lac = C[C@H](O)C(=O)O

Experiments:
[1] = tested on: Trypanosoma brucei rhodesiense; test: Antitrypanosomal activity against Trypanosoma brucei rhodesiense IL-1501 measured after 69 hrs by alamar blue staining based microplate fluorescence assay; type: functional, organism-based; conditions: IL-1501, 69 h
Plasmodium falciparum = test: Antimalarial activity against synchronized asexual blood stage Plasmodium falciparum 3D7 at 10 uM measured after 72 hrs by LDH assay; type: functional, organism-based
HeLa = test: Antiproliferative activity against human HeLa cells measured after 72 hrs by MTT assay; type: functional, cell-based

Row | Structure (SMILES) | IC50 [1] | Activity (Plasmodium falciparum) | IC50 (HeLa)
1 | N=C(N)c1ccc(OCCCCCOc2ccc(C(=N)N)cc2)cc1 [PENTAMIDINE] | 6.3 nM | – | –
2 | CC[C@H](C)[C@H]1C(=O)N[C@@H](C)C(=O)N(C)[C@@H](C(C)C)C(=O)N(C)[C@@H](C)C(=O)N[C@@H](C(C)C)C(=O)N(C)[C@@H](C(C)C)C(=O)O[C@@H](C)C(=O)N[C@H](CC)[C@H](C)C(=O)O[C@@H](C(C)C)C(=O)N1C (cyclo(A[NMeV][NMeA]V[NMeV][Lac][X1][Hiv][NMeI])) | 730 nM | inactive | 3.7 µM
